Where a name gives a salt, the structure may show the parent alone.
Biological target: AKT1 (Homo sapiens (Human), UniProt P31749)
Experiment: Inactive Akt Alpha Screen Assay
Details: non *labeled: Akt Alpha Screen assay; read-out: AKT1 biochemical assay, IC50
Protocol: AKT1 activity was assayed using the GSK3-derived biotinylated peptide substrate, crosstide (biotin-[…]), and AlphaScreen™ (Amplified Luminescent Proximity Homogeneous Assay) technology. AKT1 activation was achieved by the addition of the activating kinases PDK1 and MAPKAPK2, lipid vesicles, and ATP. The extent of peptide phosphorylation was determined using a phospho-AKT substrate antibody and acceptor beads conjugated to Protein A and donor beads conjugated to streptavidin that bind to the biotin on the peptide. Excitation of the donor beads converted ambient oxygen to excited singlet oxygen which, when in close proximity to acceptor beads, reacted with acceptor beads resulting in signal amplification. […] The plates were incubated for 30 minutes at room temperature, and then stopped in the dark by the addition of 10 μL stop/detection mixture prepared in assay buffer containing EDTA, AlphaScreen™ Streptavidin Donor and Protein A Acceptor beads, and phospho-AKT substrate antibody for final concentrations of 10 mM EDTA, 500 ng/well of both AlphaScreen™ Streptavidin Donor beads and Protein A Acceptor beads, and phospho-AKT substrate antibody at a final dilution of 1:350. Assay plates were incubated for 90 minutes at room temperature in the dark, and the plates were read on a Perkin Elmer Envision Multilabel plate reader (excitation wavelength: […], emission wavelength: 570 nm). […] Envision Instrument Settings: • Instrument: Perkin Elmer Envision • Plate: 96 well • Program Name: • Excitation: Ex Top • Mirror: General Dual—Slot 2 • Excitation Filter: CFP430 Ex.

Sequence of AKT1 (P31749 whole entry): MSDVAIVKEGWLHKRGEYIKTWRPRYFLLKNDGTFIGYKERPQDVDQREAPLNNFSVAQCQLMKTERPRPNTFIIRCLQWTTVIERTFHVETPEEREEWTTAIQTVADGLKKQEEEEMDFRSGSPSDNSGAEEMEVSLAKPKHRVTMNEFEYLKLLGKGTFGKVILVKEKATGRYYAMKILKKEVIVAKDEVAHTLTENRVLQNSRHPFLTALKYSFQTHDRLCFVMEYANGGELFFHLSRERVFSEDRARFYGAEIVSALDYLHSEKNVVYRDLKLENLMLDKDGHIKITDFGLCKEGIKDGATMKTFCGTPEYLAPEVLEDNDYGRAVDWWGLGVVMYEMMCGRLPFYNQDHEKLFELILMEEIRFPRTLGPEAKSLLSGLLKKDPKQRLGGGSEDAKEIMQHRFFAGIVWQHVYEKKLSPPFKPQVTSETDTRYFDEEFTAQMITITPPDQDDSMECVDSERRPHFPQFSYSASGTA

| SMILES | IC50 [µM] |
| --- | --- |
| CC(C)CNCc1ccc(-c2nnc3n2-c2cccnc2Nc2ccccc2-3)cc1 [Example 71, N-(4-(9H-benzo[f]pyrido[2,3-b][1,2,4]triazolo[4,3-d][1,4]diazepin-3-yl)benzyl)-2-methylpropan-1-amine] | 6.4 |
| O=C(Cc1ccccc1)Nc1ccc(-c2nnc3n2-c2cccnc2Nc2ccccc2-3)cc1 [Example 49, N-(4-(9H-benzo[f]pyrido[2,3-b][1,2,4]triazolo[4,3-d][1,4]diazepin-3-yl)phenyl)-2-phenylacetamide] | 0.24 |
| Fc1cccc(F)c1-c1nnc2n1-c1cccnc1Nc1ccccc1-2 [Example 16] | 28 |
| c1ccc(OC2CCN(Cc3ccc(-c4nnc5n4-c4cccnc4Nc4ccccc4-5)cc3)CC2)cc1 [Example 188, 3-(4-((4-phenoxypiperidin-1-yl)methyl)phenyl)-9H-benzo[f]pyrido[2,3-b][1,2,4]triazolo[4,3-d][1,4]diazepine] | 0.83 |
| COc1ccc(S(=O)(=O)NCc2ccc(-c3nnc4n3-c3cccnc3Nc3ccccc3-4)cc2)cc1 [Example 102, N-(4-(9H-benzo[f]pyrido[2,3-b][1,2,4]triazolo[4,3-d][1,4]diazepin-3-yl)benzyl)-4-methoxybenzenesulfonamide] | 0.8 |
| CS(=O)(=O)OCc1ccc(-c2nnc3n2-c2cccnc2Nc2ccccc2-3)cc1 [Example 64, 4-(9H-benzo[f]pyrido[2,3-b][1,2,4]triazolo[4,3-d][1,4]diazepin-3-yl)benzyl methanesulfonate] | 0.49 |
| NC1(c2ccc(-c3nnc4n3-c3cc(-c5ccccc5)cnc3Nc3ccccc3-4)cc2)CCC1 [Example 230, 1-(4-(6-phenyl-9H-benzo[f]pyrido[2,3-b][1,2,4]triazolo[4,3-d][1,4]diazepin-3-yl)phenyl)cyclobutanamine] | 2.6 |
| CN(C)C(=O)CN1CCN(Cc2ccc(-c3nnc4n3-c3cccnc3Nc3ccccc3-4)cc2)CC1 [Example 72, 2-(4-(4-(9H-benzo[f]pyrido[2,3-b][1,2,4]triazolo[4,3-d][1,4]diazepin-3-yl)benzyl)piperazin-1-yl)-N,N-dimethylacetamide] | 8 |
| Cc1ccccc1NC(=O)NC1CCN(Cc2ccc(-c3nnc4n3-c3cccnc3Nc3ccccc3-4)cc2)CC1 [Example 179, 1-(1-(4-(9H-benzo[f]pyrido[2,3-b][1,2,4]triazolo[4,3-d][1,4]diazepin-3-yl)benzyl)piperidin-4-yl)-3-(o-tolyl)urea] | 0.7 |
| O=C(c1ccco1)N1CCN(Cc2ccc(-c3nnc4n3-c3cccnc3Nc3ccccc3-4)cc2)CC1 [Example 92, (4-(4-(9H-benzo[f]pyrido[2,3-b][1,2,4]triazolo[4,3-d][1,4]diazepin-3-yl)benzyl)piperazin-1-yl)(furan-2-yl)methanone] | 1.4 |
| Cc1cccc(NC(=O)NC2CCN(Cc3ccc(-c4nnc5n4-c4cccnc4Nc4ccccc4-5)cc3)CC2)c1 [Example 170, 1-(1-(4-(9H-benzo[f]pyrido[2,3-b][1,2,4]triazolo[4,3-d][1,4]diazepin-3-yl)benzyl)piperidin-4-yl)-3-(m-tolyl)urea] | 0.66 |
| Cn1ccc(S(=O)(=O)NC2(c3ccc(-c4nnc5n4-c4cccnc4Nc4ccccc4-5)cc3)CCC2)n1 [Example 205, N-(1-(4-(9H-benzo[f]pyrido[2,3-b][1,2,4]triazolo[4,3-d][1,4]diazepin-3-yl)phenyl)cyclobutyl)-1-methyl-1H-pyrazole-3-sulfonamide] | 0.64 |
| O=C(Nc1ccc(-c2nnc3n2-c2cccnc2Nc2ccccc2-3)cc1)c1cccc2ccccc12 [Example 34, N-(4-(9H-benzo[f]pyrido[2,3-b][1,2,4]triazolo[4,3-d][1,4]diazepin-3-yl)phenyl)-1-naphthamide] | 0.64 |
| O=C(NC1(c2ccc(-c3nnc4n3-c3ccc(Cl)nc3Nc3ccccc3-4)cc2)CCC1)C(F)(F)F [Example 226, N-(1-(4-(7-chloro-9H-benzo[f]pyrido[2,3-b][1,2,4]triazolo[4,3-d][1,4]diazepin-3-yl)phenyl)cyclobutyl)-2,2,2-trifluoroacetamide] | 9.3 |
| COc1cccc(CNC(=O)NC2CCN(Cc3ccc(-c4nnc5n4-c4cccnc4Nc4ccccc4-5)cc3)CC2)c1 [Example 171, 1-(1-(4-(9H-benzo[f]pyrido[2,3-b][1,2,4]triazolo[4,3-d][1,4]diazepin-3-yl)benzyl)piperidin-4-yl)-3-(3-methoxybenzyl)urea] | 0.78 |
| O=C(Nc1ccc2c(c1)CCO2)NC1CCN(Cc2ccc(-c3nnc4n3-c3cccnc3Nc3ccccc3-4)cc2)CC1 [Example 175, 1-(1-(4-(9H-benzo[f]pyrido[2,3-b][1,2,4]triazolo[4,3-d][1,4]diazepin-3-yl)benzyl)piperidin-4-yl)-3-(2,3-dihydrobenzofuran-5-yl)urea] | 0.53 |

| SMILES | IC50 [µM] |
| --- | --- |
| N#Cc1ccc(C(=O)NC2CCN(Cc3ccc(-c4nnc5n4-c4cccnc4Nc4ccccc4-5)cc3)CC2)cc1 [Example 130, N-(1-(4-(9H-benzo[f]pyrido[2,3-b][1,2,4]triazolo[4,3-d][1,4]diazepin-3-yl)benzyl)piperidin-4-yl)-4-cyanobenzamide] | 1.7 |
| N#Cc1cccc(C(=O)Nc2ccc(-c3nnc4n3-c3cccnc3Nc3ccccc3-4)cc2)c1 [Example 60, N-(4-(9H-benzo[f]pyrido[2,3-b][1,2,4]triazolo[4,3-d][1,4]diazepin-3-yl)phenyl)-3-cyanobenzamide] | 0.076 |
| O=C(c1ccc(F)cc1)C1CCN(Cc2ccc(-c3nnc4n3-c3cccnc3Nc3ccccc3-4)cc2)CC1 [Example 164, (1-(4-(9H-benzo[f]pyrido[2,3-b][1,2,4]triazolo[4,3-d][1,4]diazepin-3-yl)benzyl)piperidin-4-yl)(4-fluorophenyl)methanone] | 1.8 |
| COc1ccc(C(=O)Nc2ccc(-c3nnc4n3-c3cccnc3Nc3ccccc3-4)cc2)cc1 [Example 31, N-(4-(9H-benzo[f]pyrido[2,3-b][1,2,4]triazolo[4,3-d][1,4]diazepin-3-yl)phenyl)-4-methoxybenzamide] | 0.16 |
| CC(=O)c1ccc(S(=O)(=O)NC2CCN(Cc3ccc(-c4nnc5n4-c4cccnc4Nc4ccccc4-5)cc3)CC2)cc1 [Example 155, N-(1-(4-(9H-benzo[f]pyrido[2,3-b][1,2,4]triazolo[4,3-d][1,4]diazepin-3-yl)benzyl)piperidin-4-yl)-4-acetylbenzenesulfonamide] | 3.4 |
| O=C(c1ccccn1)N1CCN(Cc2ccc(-c3nnc4n3-c3cccnc3Nc3ccccc3-4)cc2)CC1 [Example 161, (4-(4-(9H-benzo[f]pyrido[2,3-b][1,2,4]triazolo[4,3-d][1,4]diazepin-3-yl)benzyl)piperazin-1-yl)(pyridin-2-yl)methanone] | 4.2 |
| Cc1cc(C(=O)N2CCN(Cc3ccc(-c4nnc5n4-c4cccnc4Nc4ccccc4-5)cc3)CC2)no1 [Example 142, (4-(4-(9H-benzo[f]pyrido[2,3-b][1,2,4]triazolo[4,3-d][1,4]diazepin-3-yl)benzyl)piperazin-1-yl)(5-methylisoxazol-3-yl)methanone] | 2.9 |
| CC(=O)NC1CCN(Cc2ccc(-c3nnc4n3-c3cccnc3Nc3ccccc3-4)cc2)C1 (centres unmarked) [Example 86, N-(1-(4-(9H-benzo[f]pyrido[2,3-b][1,2,4]triazolo[4,3-d][1,4]diazepin-3-yl)benzyl)pyrrolidin-3-yl)acetamide] | 3.4 |
| COc1ccc(C(=O)N2CCN(Cc3ccc(-c4nnc5n4-c4cccnc4Nc4ccccc4-5)cc3)CC2)cc1 [Example 137, (4-(4-(9H-benzo[f]pyrido[2,3-b][1,2,4]triazolo[4,3-d][1,4]diazepin-3-yl)benzyl)piperazin-1-yl)(4-methoxyphenyl)methanone] | 1.4 |
| NC1(c2ccc(-c3nnc4n3-c3cccnc3Nc3ccc(-c5ccccc5)cc3-4)cc2)CCC1 [Example 224, 1-(4-(12-phenyl-9H-benzo[f]pyrido[2,3-b][1,2,4]triazolo[4,3-d][1,4]diazepin-3-yl)phenyl)cyclobutanamine] | 1.2 |
| Nc1cccc(-c2nnc3n2-c2cccnc2Nc2ccccc2-3)c1 [Example 18, hydrochloride] | 8.1 |
| OC1(c2ccccc2)CCN(Cc2ccc(-c3nnc4n3-c3cccnc3Nc3ccccc3-4)cc2)CC1 [Example 80, 1-(4-(9H-benzo[f]pyrido[2,3-b][1,2,4]triazolo[4,3-d][1,4]diazepin-3-yl)benzyl)-4-phenylpiperidin-4-ol] | 1.9 |
| CCCc1ccccc1NC(=O)NC1CCN(Cc2ccc(-c3nnc4n3-c3cccnc3Nc3ccccc3-4)cc2)CC1 [Example 177, 1-(1-(4-(9H-benzo[f]pyrido[2,3-b][1,2,4]triazolo[4,3-d][1,4]diazepin-3-yl)benzyl)piperidin-4-yl)-3-(2-propylphenyl)urea] | 0.77 |
| Fc1ccc(-c2nnc3n2-c2cccnc2Nc2ccccc2-3)cc1 [hydrochloride] | 23 |
| O=C(Nc1ccc(-c2nnc3n2-c2cccnc2Nc2ccccc2-3)cc1)c1ccncc1 [Example 58, N-(4-(9H-benzo[f]pyrido[2,3-b][1,2,4]triazolo[4,3-d][1,4]diazepin-3-yl)phenyl)isonicotinamide] | 0.35 |
| COC(=O)c1ccc(-c2nnc3n2-c2cccnc2Nc2ccccc2-3)cc1 [Example 25, methyl 4-(9H-benzo[f]pyrido[2,3-b][1,2,4]triazolo[4,3-d][1,4]diazepin-3-yl)benzoate] | 2.6 |

Reference: patent publication US8541407B2 (ArQule, Inc., priority 2010, dated 2013)
